The results in this text go back to patent US20020159981A1, “Methods of controlling proliferation and differentiation of stem and progenitor cells” (Gamida-Cell Ltd., priority 1999, published 2002).

The subject of one series is HL-60 cells. Put plainly: Copper determination in chelator treated cells (atomic absorption). The format is cell-based, human. The procedure:
Copper Determination: Cells were harvested by centrifugation at 1000×g for 5 minutes. The cell pellet was washed three times by re-suspending the cells in PBS (Ca^++ and Mg^++ free) and centrifugation at 1000×g. An aliquot containing 2×10^6 cells was then transferred into a metal-free Eppendorf tube and the cells were recovered by centrifugation at 1000×g. The cell pellet was re-suspended in 0.03 M ultra-pure nitric acid to give a concentration of 1×10^7 cells/ml. The cells were homogenized with a high shear mixer (polytron, Kinematica, Switzerland) for 1 minutes to disrupt the cell and release intracellular copper content. Cell samples were vortexed before transferring to a vial autosampler and analyzed in duplicate by a Perkin Elmer graphite furnace atomic absorption spectrophotometer at a wavelength of 324.7 nm. The samples were analyzed against copper standard solution prepared from a commercial stock solution that was diluted with 0.03 M ultra pure nitric acid.

The test system of series [1] is Cord blood-derived CD34 cells. Put plainly: Long-term liquid culture of CD34 cells: proliferation, CFUc, differentiation status. The format is cell-based, human. Particulars: for cell proliferation and generation of CFUc in long-term cultures: long-term cultures (FIGS. 21, 22). The protocol:
(§1) Culture procedures: For the expansion of progenitor cells, CD34^+ enriched fractions or unseparated mononuclear cells were seeded at about 1-3×10^4 cells/ml in either alpha minimal essential medium containing 10% preselected fetal calf serum (FCS) (both from GIBCO, Grand Island, N.Y.), or serum-free medium (Progenitor-34 medium, Life Technologies, Grand Island, N.Y.). The media were supplemented with a mixture of growth factors and transition metal chelators. The cultures were incubated at 37° C. in an atmosphere of 5% CO2 in air with extra humidity. Half of the medium was changed weekly with fresh medium containing all the supplements.
(§2) Cloning potential evaluations: The cloning potential of cells developed in the liquid culture was assayed, at different intervals, in semi-solid medium. The cells were washed and seeded in 35 mm dishes in methylcellulose containing alpha medium supplemented with recombinant growth factors (SCF, G-CSF, GM-CSF and EPO). Following 2 weeks incubation, the cultures were scored with an inverted microscope. Colonies were classified as blast, mixed, erythroid, myeloid, and megakaryocytic, according to their cellular composition.
Morphological assessment: In order to characterize the resulting culture populations, aliquots of cells were deposited on a glass slide (cytocentrifuge, Shandon, Runcorn, UK), fixed and stained in May-Grunwald Giemsa. Other aliquots were stained by benzidine for intracellular hemoglobin.
TEPA effects on proliferation and clonability of long-term CD34^+ cultures: Long-term cultures were maintained for 3-5 weeks by weekly demi-depopulation (one half of the culture volume was removed and replaced by fresh medium and cytokines).
CD34^+ cells derived from human neonatal cord blood were purified by immunomagnetic method and then cultured in liquid medium supplemented with cytokines either with or without transition metal chelators. At weekly intervals, the cultures were demi-depopulated by removing half of the culture content (supernatant and cells) and replacing it with fresh medium, cytokines and the chelators. At the indicated weeks the cellular content of the cultures were quantified for total cells (by a manual microscopic/hemocytometric method), for CD34^+ cells (by immuno-flow cytometry) and for clonogenic cells (by cloning the cells in cytokine-supplemented semi-solid medium). The cultures were initiated with 1×10^4 cells, 50-80% of which were CD34^+ and 25-50% of which were CFUc. The results presented in FIGS. 11 to 24 were calculated per 1×10^4 initiating cells (the numbers were multiplied by the dilution factors).

The subject of series [2] is Cord blood-derived CD34 cells. Put plainly: Short-term liquid culture of CD34 cells: cell number, CD34 cells, colony forming cells. The series is classed as cell-based, human. To be noted: for effects of transition metal chelators on CD34^+ cells: 10 μM, day 7 (FIG. 7); for reversal of TEPA activities by supplemented ions: TEPA-treated cultures, short to medium term (FIGS. 8, 9). The protocol: The interphase layer of mononuclear cells were collected, washed three times with Ca/Mg free phosphate buffered saline containing 1% bovine serum albumin (BSA). The cells were incubated for 30 min. at 4° C. with murine monoclonal anti CD34 antibody (0.5 μg/10^6 mononuclear cells) and thereafter isolated using the miniMACS apparatus (Miltenyi-Biotec, Bergisch, Gladbach, Germany) according to the manufacturer's protocol.
as §1, §2
Immunofluorescence staining: At different intervals, cells from the liquid cultures were assayed for CD34 antigen. Aliquots were harvested, washed and incubated on ice with FITC-labeled anti CD45 monoclonal antibody and either PE-labeled anti CD34 (HPCA-2) monoclonal antibody or PE-labeled control mouse Ig. After incubation, red cells were lysed with lysing solution, while the remaining cells were washed and analyzed by flow cytometer.
Flow cytometry: Cells were analyzed and sorted using FACStarPlus flow cytometer (Becton-Dickinson, Immunofluorometry systems, Mountain View, Calif.). Cells were passed at a rate of 1,000 cells/second through a […] nozzle, using saline as the sheath fluid. A 488 nm argon laser beam at 250 mW served as the light source for excitation. […] The PMTs was set at the appropriate voltage. Logarithmic amplification was applied for measurements of fluorescence and linear amplification—for forward light scatter. At least 10^4 cells were analyzed.
Cord blood-derived CD34 cells were plated in liquid culture in the presence of: FL—50 ng/ml, SCF—50 ng/ml, IL-6—50 ng/ml, with or without IL-3—20 ng/ml, with or without TEPA—10 μM. On day 7, the percentage of CD34 cells and the total cell number were determined. Aliquots equivalent to 1×10^3 initiating cells were assayed on days 0 and 7 for colony forming cells (CFU) by cloning in semi-solid medium. CFU expansion represents the ratio of CFU present on day 7 to CFU present on day 0.

Series [3] has as its system Murine erythroleukemia cells (MEL). Put plainly: HMBA-induced differentiation and growth of erythroleukemic cells. The format is cell-based, mouse. To be noted: day 3 (Table 2). The protocol:
Mouse erythroleukemic cells (MEL): MEL cells are erythroblast like cells. Following treatment with several chemicals (differentiation inducers) the cells undergo erythroid differentiation and accumulate hemoglobin. […] At day 3 of the culture, the total number of cells and the percentage of hemoglobin-containing cells were determined (Table 2).
On day 3, total cell number and hemoglobin containing (benzidine positive) cells were determined.

Series [4] concerns cord blood-derived CD34^+ cells. Put plainly: Copper-chelating peptides on proliferation and clonability in CD34 cell cultures. The format is cell-based. Particulars: for decrease of cell number / decrease of clonogenic potential (CFUc): peptides 10 μM, cytokines 10 ng/ml each; for decrease of cell number: after 7 weeks (FIG. 25a); for decrease of clonogenic potential (CFUc): after 7 weeks (FIG. 25b); for effect on cell differentiation: second group of Copper chelators. The procedure: Culture procedures: For the expansion of progenitor cells, CD34^+ enriched fractions were seeded at 1×10^4 cells/ml in alpha minimal essential medium containing 10% preselected fetal calf serum (FCS) (both from GIBCO, Grand Island, N.Y.). The medium was supplemented with a mixture of growth factors and Copper chelators. The cultures were incubated at 37° C. in an atmosphere of 5% CO2 in air with extra humidity. Half of the medium was changed weekly with fresh medium containing all the supplements.
The cloning potential of the cultured cells was assayed in semi-solid medium. The cells were washed and seeded in 35 mm dishes in methylcellulose containing alpha medium supplemented with 30% FCS and further with recombinant growth factors (stem cell factor (SCF), G-CSF, GM-CSF and erythropoietin (EPO)). Following two week incubation, the cultures were scored with an inverted microscope. Colonies were classified as blast, mixed, erythroid, myeloid, and megakaryocytic, according to their cellular composition.
The effect of Copper-chelating peptides on proliferation and clonability in CD34 cell cultures: Cultures were initiated with 10^4 cord blood-derived CD34^+ cells by plating purified cells in liquid medium in the presence of SCF, FLT3 and IL-6 (50 ng/ml each) and the Copper-binding peptides, Gly-Gly-His (GGH) or Gly-His-Lys (GHL) (10 μM each), or the late-acting cytokines G-CSF and GM-CSF (10 ng/ml each). At weekly intervals, the cultures were demi-depopulated and supplemented with fresh medium, cytokines and the peptides. After 7 weeks, cells were counted and assayed for CFUc.

The mark [5] stands for this setting: polyamine chelating agents, weeks 3, 4, 6, 7 (FIGS. 21a-b).

Regarding `O=C1CC(=O)NCCNCCCNCCN1` [1,4,8,11-Tetraaza cyclotetradecane-5,7-dione], the “Average Intracellular ppb Cu” value in the series with HL-60 cells (100 μM, control 49 + − 18) was found to be 274 ppb.

With `NCCN` [EDA, ethylenediamine], in series [1], the “cell proliferation and generation of CFUc in long-term cultures” value (from here on “cell proliferation and generation”) is “support continuous cell proliferation and long-term generation of CFUc and to delay cell differentiation”. In addition, in series [1] (setting [5]), the “concentrations with optimal activity” value turned out to be 20 µM.

On to `C1CNCCNCCN1.Cl.Cl.Cl` [1,4,7-Triazacyclononane trihydrochioride], for which the “Average Intracellular Cu (% of control)” value amounted to 32% in the series with HL-60 cells (20 μM) and 36% in the series on HL-60 cells (100 μM).

For `C[C@H](CS)C(=O)N1CCC[C@H]1C(=O)O` [Captopril, captopril, reference compound], the “effects of transition metal chelators on CD34^+ cells” value in series [2] is on record as “share the same effects on CD34^+ cells as TEPA”. In addition, the “HMBA-induced differentiation of MEL cells” value in series [3] was “inhibited”.

With `C1CNCCNCCNCCN1` [1,4,7,10-Tetraaza cyclododecane], the “activity on differentiation of CD34^+ cells” value (from here on “activity on differentiation”) in series [1] is recorded as “stimulate differentiation”.

For Gly-Gly-His (GHK) [GGH], in series [1], the “activity on differentiation” value is reported as “stimulate differentiation”. In series [4], the “decrease of cell number” value is recorded as 10%, the “decrease of clonogenic potential (CFUc)” value is given as 80% and the “effect on cell differentiation” value is “accelerate cell differentiation”.

Gly-His-Lys (GGH) [GHL]: in series [1], the “activity on differentiation” value was “stimulate differentiation”. Besides, in series [4], the “decrease of cell number” value is reported as 25%, the “decrease of clonogenic potential (CFUc)” value is recorded as 78% and the “effect on cell differentiation” value was “accelerate cell differentiation”.

With `O=[Se]([O-])[O-].[Na+].[Na+]` [selenium, sodium selenite], the “reversal of TEPA activities by supplemented ions” value (“reversal of TEPA activities” below) in series [2] is recorded as “did not”.

As for `NCCNCCNCCN` [Triethylene tetramine, triethylene-tetramine], the “cell proliferation and generation” value in series [1] was “support continuous cell proliferation and long-term generation of CFUc and to delay cell differentiation”. The “concentrations with optimal activity” value in series [1] (setting [5]) is 20 µM.

Consider iron, for which the “reversal of TEPA activities” value in series [2] was “did not”.

For `O=S(=O)([O-])[O-].[Zn+2]` [Zinc, Zinc-sulfate], in series [2] (Zinc alone (FIG. 10)), the “clonability of the cultures” value is “expand the clonability”. Moreover, the “effect of Zinc in long term cultures” value in series [1] (FIGS. 23a-b, to a smaller extent than the chelators) is recorded as “mimicked the effect of the chelating agents”.

With `O=S(=O)([O-])[O-].[Cu+2]` [Copper, Copper-sulfate], in series [2], the “reversal of TEPA activities” value is “reversed”.

Regarding `CC(C)(S)[C@@H](N)C(=O)O` [Penicilamine, penicilamine, reference compound], the “effects of transition metal chelators on CD34^+ cells” value in series [2] is listed as “share the same effects on CD34^+ cells as TEPA”. For the same molecule, the “cell proliferation and generation” value in series [1] is “sustained cell proliferation and expansion of clonogenic cells”. Besides, the “concentrations with optimal activity” value in series [1] (transition metal chelating agents, weeks 4, 5, 7 (FIGS. 22a-b)) came to 5 µM.
